Source: patent US20090042883A1, “ANTITUMOR AGENT” (KYOWA HAKKOKOGYO CO., priority 2005, published 2009)

How the values were obtained:
[1] = system: human chronic myelocytic leukemia K562 cells; test: Antitumor effect in vivo, mouse model transplanted with human chronic myelocytic leukemia K562 cells; settings: K562 subcutaneous transplant in Fox C.B-17/Icr-scid mice; 100 mg/kg intravenously twice a day on days 0, 1, 2, 7, 8, 9; tumor volume to day 22
Protocol: Using an experimental system in which human chronic myelocytic leukemia K562 cells were transplanted into immunodeficient mice as disease models of hematopoietic tumor, the antitumor effect in vivo of Compound 33 was examined.
One day before the transplantation of cancer cells, an anti-asialo GM1 antibody was intraabdominally administered to Fox C.B-17/Icr-scidJc1 mice (CLEA Japan) in an amount of 0.3 mg per mouse. K562 cells were cultured and grown in RPMI1640 medium containing 10% fetal calf serum (FCS) in a 5% carbon dioxide incubator at 37° C., and the cultured cells (1×10^7 cells/mouse) were subcutaneously, ventrally transplanted into the mice. Ten days after the transplantation, the major axis and minor axis of the tumors subcutaneously grown were measured with slide calipers, and the tumor volume was determined according to the following formula: […]
(§1) At the same time, the body weight of each mouse was measured, and the mice were divided into two groups, i.e., a group to be administered with drugs and a group not to be administered with drugs, such that each group consists of five mice with various weights and tumor volumes. This day was defined as day 0 of the administration test. Drug administration was started in the following manner. […]

[2] = system: human lung cancer NCI-H596 cells; test: Antitumor effect in vivo, mouse model transplanted with human lung cancer NCI-H596 cells; settings: NCI-H596 subcutaneous transplant in BALB/cAJc1-nu mice; 50 mg/kg intravenously twice a day on days 0 to 4; tumor volume to day 17
Protocol: Using an experimental system in which human lung cancer NCI-H596 cells were transplanted into immunodeficient mice as disease models of solid tumor, the antitumor effect in vivo of Compound 33 was examined.
NCI-H596 cells were cultured and grown in RPMI1640 medium containing 10% fetal calf serum (FCS) in a 5% carbon dioxide incubator at 37° C., and the cultured cells (1×10^7 cells/mouse) were subcutaneously, ventrally transplanted into BALB/cAJc1-nu mice (CLEA Japan). From the mice in which tumors were formed, the tumors were removed. The tumor tissues were cut into small pieces of about 8 mm^3, which were subcutaneously, ventrally transplanted, using a trocar needle, into BALB/cAJc1-nu mice (CLEA Japan) to be used for experiment. Seventeen days after the transplantation, the major axis and minor axis of the tumors subcutaneously grown were measured with slide calipers, and the tumor volume was determined according to the following formula: […]
as §1

[3] = system: human prostate cancer 22Rv1 cells; test: Antitumor effect in vivo, mouse model transplanted with human prostate cancer 22Rv1 cells; settings: 22Rv1 subcutaneous transplant in BALB/cAJc1-nu mice; 100 mg/kg intravenously twice a day on days 0 to 4; tumor volume to day 17
Protocol: Using an experimental system in which human prostate cancer 22Rv1 cells were transplanted into immunodeficient mice as disease models of solid tumor, the antitumor effect in vivo of Compound 33 was examined.
22Rv1 cells were cultured and grown in RPMI1640 medium containing 10% fetal calf serum (FCS) in a 5% carbon dioxide incubator at 37° C., and the cultured cells (1×10^7 cells/mouse) were subcutaneously, ventrally transplanted into BALB/cAJc1-nu mice (CLEA Japan). Seventeen days after the transplantation, the major axis and minor axis of the tumors subcutaneously grown were measured with slide calipers, and the tumor volume was determined according to the following formula: […]
as §1

CCc1c(O)cc(O)c(C(=O)c2ccc(OC)cc2)c1CC(=O)N(CCO)CCOC [Compound 33]
apparent suppression of tumor growth: antitumor effect in vivo (tumor volume, FIG. 1) [1] | antitumor effect in vivo (tumor volume, FIG. 2) [2] | antitumor effect in vivo (tumor volume, FIG. 3) [3]
